Laboratory results as given in ChEMBL document CHEMBL1132093, “Fecal excretion pattern of bile acids in rats fed high fat diets and neomycin in induced colon tumorigenesis” (1999).

How the values were obtained:
Type in all cases: functional
Rattus norvegicus [1] = species on record: Rattus norvegicus; assay: Effect on colon large bowel tumorigenesis in rats fed with cholesterol and cholic acid diet(Group 2 diet)
Rattus norvegicus [2] = species on record: Rattus norvegicus; assay: Effect on colon large bowel tumorigenesis in rats fed with safflower oil diet(Group 1 diet)
Rattus norvegicus [3] = species on record: Rattus norvegicus; assay: Effect on colon small bowel tumorigenesis in rats fed with cholesterol and cholic acid diet(Group 2 diet)
Rattus norvegicus [4] = species on record: Rattus norvegicus; assay: Effect on colon small bowel tumorigenesis in rats fed with safflower oil diet(Group 1 diet)
Rattus norvegicus [5] = species on record: Rattus norvegicus; assay: Average number of tumors per rat in colon large bowel tumorigenesis in rats fed with cholesterol and cholic acid diet(Group 2 diet)
Rattus norvegicus [6] = species on record: Rattus norvegicus; assay: Average number of tumors per rat in colon large bowel tumorigenesis in rats fed with safflower oil diet(Group 1 diet)
Rattus norvegicus [7] = species on record: Rattus norvegicus; assay: Average number of tumors per rat in colon small bowel tumorigenesis in rats fed with cholesterol and cholic acid diet(Group 2 diet)
Rattus norvegicus [8] = species on record: Rattus norvegicus; assay: Average number of tumors per rat in colon small bowel tumorigenesis in rats fed with safflower oil diet(Group 1 diet)

NC[C@@H]1O[C@H](O[C@H]2[C@@H](O)[C@H](O[C@@H]3[C@@H](O)[C@H](N)C[C@H](N)[C@H]3O[C@H]3O[C@H](CN)[C@@H](O)[C@H](O)[C@H]3N)O[C@@H]2CO)[C@H](N)[C@@H](O)[C@@H]1O [FRAMYCETIN]
Incidence (Rattus norvegicus [1]): 80%
Incidence (Rattus norvegicus [2]): 98%
Incidence (Rattus norvegicus [3]): 25%
Incidence (Rattus norvegicus [4]): 22%
No. of tumors (Rattus norvegicus [5]): 1.13
No. of tumors (Rattus norvegicus [6]): 3
No. of tumors (Rattus norvegicus [7]): 0.5
No. of tumors (Rattus norvegicus [8]): 0.5
